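Tested at 5 concentrations; 48 h exposure; 96-well plates; endpoints linearly interpolated, else capped at highest concentration. At the TGI there is no net growth.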
Key:
Assay in all cases: inhibition of tumour cell growth, NCI panel, 48 h
A549 NSCLC = test system: A549 NSCLC
CCRF-CEM leukemia = test system: CCRF-CEM leukemia
EKVX NSCLC = test system: EKVX NSCLC
IGROV1 ovarian = test system: IGROV1 ovarian
OVCAR-4 ovarian = test system: OVCAR-4 ovarian
RPMI-8226 leukemia = test system: RPMI-8226 leukemia
SF-295 CNS = test system: SF-295 CNS
SK-MEL-28 melanoma = test system: SK-MEL-28 melanoma
SNB-19 CNS = test system: SNB-19 CNS
SW-620 colon = test system: SW-620 colon
MDA-MB-231 breast = test system: MDA-MB-231 breast
NCI/ADR-RES ovarian = test system: NCI/ADR-RES ovarian
PC-3 prostate = test system: PC-3 prostate
UACC-257 melanoma = test system: UACC-257 melanoma
UACC-62 melanoma = test system: UACC-62 melanoma
DU-145 prostate = test system: DU-145 prostate
LOX IMVI melanoma = test system: LOX IMVI melanoma
T-47D breast = test system: T-47D breast

Compound	TGI (A549 NSCLC)	TGI (CCRF-CEM leukemia)	TGI (EKVX NSCLC)	TGI (IGROV1 ovarian)	TGI (OVCAR-4 ovarian)	TGI (RPMI-8226 leukemia)	TGI (SF-295 CNS)	TGI (SK-MEL-28 melanoma)	TGI (SNB-19 CNS)	TGI (SW-620 colon)	TGI (MDA-MB-231 breast)	TGI (NCI/ADR-RES ovarian)	TGI (PC-3 prostate)	TGI (UACC-257 melanoma)	TGI (UACC-62 melanoma)	TGI (DU-145 prostate)	TGI (LOX IMVI melanoma)	TGI (T-47D breast)
Cc1ccc2c(c1CCCC(C)(C)O)C(=O)C(=O)C(C(C)C)=C2O	> 100 µM	> 100 µM	> 100 µM	> 100 µM	> 100 µM	> 100 µM	> 100 µM	> 100 µM	> 100 µM	> 100 µM	–	–	–	–	–	–	–	–
Cc1ccc2nc(-c3ccc(N)c(I)c3)sc2c1	58.7 µM	88.8 µM	> 100 µM	–	41.9 µM	–	44.9 µM	> 100 µM	86.4 µM	57.8 µM	> 100 µM	> 100 µM	60.6 µM	> 100 µM	> 100 µM	–	–	–
CC1=NC(=Cc2ccc(O)cc2)C(=O)N1n1c(-c2ccccc2)nc2ccccc2c1=O	> 100 µM	> 100 µM	> 100 µM	> 100 µM	–	> 100 µM	> 100 µM	> 100 µM	> 100 µM	> 100 µM	> 100 µM	–	> 100 µM	> 100 µM	> 100 µM	> 100 µM	> 100 µM	> 100 µM
Cc1cn(C2CC(N(O)Cc3ccccc3)C(CO)O2)c(=O)[nH]c1=O (stereo not drawn)	> 100 µM	> 100 µM	> 100 µM	> 100 µM	> 100 µM	> 100 µM	> 100 µM	> 100 µM	> 100 µM	> 100 µM	–	–	–	> 100 µM	> 100 µM	–	> 100 µM	–
COc1ccc2c(c1)CC[C@@H]1[C@@H]2CC[C@]2(C)C(=O)/C(=C/c3ccc(OC)c(OC)c3)C[C@@H]12	> 100 µM	–	> 100 µM	–	> 100 µM	> 100 µM	> 100 µM	–	> 100 µM	> 100 µM	> 100 µM	> 100 µM	> 100 µM	–	> 100 µM	> 100 µM	–	–
CNC(=S)N/N=C(C)\C(=N/NC(=S)NC)c1ccccc1	> 100 µM	–	> 100 µM	> 100 µM	–	–	> 100 µM	–	> 100 µM	–	> 100 µM	> 100 µM	> 100 µM	> 100 µM	> 100 µM	> 100 µM	> 100 µM	–
NC(CCC(=O)NC(CSC(=O)N(O)c1ccc(Br)cc1)C(=O)NCC(=O)O)C(=O)O (stereo not drawn)	> 100 µM	> 100 µM	> 100 µM	> 100 µM	> 100 µM	> 100 µM	> 100 µM	> 100 µM	> 100 µM	> 100 µM	> 50 µM	> 50 µM	> 50 µM	> 100 µM	> 100 µM	> 50 µM	> 100 µM	–
CC1=C(Br)C(Br)=C(C)S1=O	79.8 µM	6.66 µM	36.9 µM	> 100 µM	> 100 µM	24 µM	49.6 µM	41.9 µM	63.7 µM	> 100 µM	61.5 µM	> 100 µM	48.8 µM	32.1 µM	85.8 µM	–	27.8 µM	> 100 µM
O=c1[nH]cc(COCC(F)(F)C(F)(F)C(F)(F)C(F)F)c(=O)[nH]1	> 100 µM	> 100 µM	> 100 µM	> 100 µM	–	> 100 µM	> 100 µM	> 100 µM	> 100 µM	> 100 µM	–	–	–	> 100 µM	> 100 µM	–	> 100 µM	–
O=c1cc(-c2ccccc2)[nH]c2cc3c(cc12)OCO3	> 100 µM	> 100 µM	> 100 µM	> 100 µM	> 100 µM	> 80 µM	> 42.3 µM	> 100 µM	> 100 µM	> 100 µM	> 100 µM	–	> 100 µM	> 100 µM	> 90.7 µM	> 100 µM	> 100 µM	> 100 µM
CCN1c2nc3ccccc3nc2N(CC)c2nc3ccccc3nc21	> 100 µM	> 100 µM	> 100 µM	> 100 µM	–	> 100 µM	> 100 µM	> 100 µM	> 100 µM	> 100 µM	> 100 µM	> 100 µM	> 100 µM	–	> 100 µM	> 100 µM	> 100 µM	–
COc1cc2c(cc1OCc1ccccc1)CNCC2	> 100 µM	> 100 µM	> 100 µM	> 100 µM	> 100 µM	–	> 100 µM	> 100 µM	> 100 µM	> 100 µM	–	–	–	> 100 µM	> 100 µM	–	> 100 µM	–
CCCCCC(C[N+]1(C)CCOCC1)C(=O)/C=C/c1ccccc1 (stereo not drawn)	62 µM	> 35.3 µM	38.2 µM	40.1 µM	15.9 µM	8.59 µM	21.6 µM	30 µM	24.5 µM	7.51 µM	–	–	–	27.6 µM	26.6 µM	–	4.02 µM	–
O=[N+]([O-])c1ccc(-n2nnc(C3=NCCCN3)c2-c2ccc(Cl)cc2)cc1	> 100 µM	> 100 µM	> 100 µM	> 100 µM	> 100 µM	> 100 µM	> 100 µM	> 100 µM	> 100 µM	> 100 µM	–	–	–	> 100 µM	> 100 µM	–	> 100 µM	–
N#Cc1c(-c2ccccc2)[nH]c2ccccc2c1=O	> 100 µM	> 100 µM	> 100 µM	> 100 µM	> 100 µM	–	66.7 µM	> 100 µM	74.9 µM	> 100 µM	> 100 µM	> 100 µM	> 100 µM	> 100 µM	> 100 µM	> 100 µM	> 100 µM	–
CCOC(=O)C(N=Nc1ccc(S(N)(=O)=O)cc1)C(C)=O (stereo not drawn)	> 100 µM	> 100 µM	> 100 µM	> 100 µM	> 100 µM	> 100 µM	> 100 µM	> 100 µM	> 100 µM	> 100 µM	–	–	–	> 100 µM	> 100 µM	–	> 100 µM	–

Compound	TGI (A549 NSCLC)	TGI (CCRF-CEM leukemia)	TGI (EKVX NSCLC)	TGI (IGROV1 ovarian)	TGI (OVCAR-4 ovarian)	TGI (RPMI-8226 leukemia)	TGI (SF-295 CNS)	TGI (SK-MEL-28 melanoma)	TGI (SNB-19 CNS)	TGI (SW-620 colon)	TGI (MDA-MB-231 breast)	TGI (NCI/ADR-RES ovarian)	TGI (PC-3 prostate)	TGI (UACC-257 melanoma)	TGI (UACC-62 melanoma)	TGI (DU-145 prostate)	TGI (LOX IMVI melanoma)	TGI (T-47D breast)
Cc1cn(C2CC(ON3C(=O)c4ccccc4C3=O)C(CO)O2)c(=O)[nH]c1=O (stereo not drawn)	> 10 µM	> 10 µM	> 10 µM	> 10 µM	> 10 µM	–	> 10 µM	–	> 10 µM	> 10 µM	–	> 10 µM	> 10 µM	> 10 µM	> 10 µM	> 10 µM	> 10 µM	–
CCN1CCN(c2ccc(Nc3ccnc4ccc5nn(C)nc5c34)cc2)CC1	27.3 µM	> 100 µM	–	39.5 µM	26.1 µM	> 100 µM	25.5 µM	30.5 µM	43.9 µM	19.7 µM	–	–	–	30.7 µM	30.8 µM	–	20.1 µM	–
CCOC(=O)C1(C(=O)OCC)CN(CC)CN(c2ccccc2)C1	49.3 µM	59.1 µM	34 µM	39.8 µM	49.1 µM	45 µM	> 100 µM	38.8 µM	> 100 µM	> 100 µM	–	> 100 µM	–	31.1 µM	68.5 µM	91.7 µM	> 100 µM	–
O=C(C[n+]1ccccc1)NNC(=O)/C(=C/c1ccc2c(c1)OCO2)NC(=O)c1ccccc1	> 100 µM	65 µM	> 100 µM	> 100 µM	> 94.5 µM	63 µM	> 100 µM	> 100 µM	> 100 µM	> 100 µM	–	–	–	> 100 µM	> 100 µM	–	49 µM	–
C=CCN1C[C@H](C)N([C@H](c2ccc(C(=O)N(CC)CCO)cc2)c2cccc(OC)c2)C[C@H]1C	> 100 µM	–	> 100 µM	> 100 µM	> 100 µM	> 100 µM	> 100 µM	> 100 µM	> 100 µM	> 100 µM	> 100 µM	> 100 µM	> 100 µM	> 100 µM	> 100 µM	> 100 µM	–	> 100 µM
COc1ccc(C[N+]23C(CC[C@H]2c2ccccc2)CC[C@H]3c2ccccc2)cc1 (stereo partly drawn)	> 100 µM	> 100 µM	69.8 µM	36.5 µM	84.1 µM	27 µM	61.7 µM	> 100 µM	> 100 µM	> 100 µM	82.4 µM	–	92.1 µM	50.5 µM	–	77.8 µM	44.7 µM	61.5 µM
C[C@]12CCC(=O)C=C1CC[C@@H]1C2CC[C@]2(C)c3nn(-c4ccc(F)cc4)nc3CC12 (stereo partly drawn)	> 100 µM	> 100 µM	> 100 µM	> 100 µM	> 100 µM	–	> 100 µM	> 100 µM	> 100 µM	> 100 µM	> 100 µM	–	> 100 µM	> 100 µM	> 100 µM	> 100 µM	–	> 100 µM
C/C(=C1/CCCC2(N=NCC2c2ccccc2)C1=O)c1ccccc1 (stereo not drawn)	92.6 µM	66.1 µM	> 100 µM	> 100 µM	> 100 µM	> 100 µM	> 100 µM	73.2 µM	> 100 µM	> 100 µM	–	–	–	52.7 µM	47.7 µM	–	> 100 µM	–
COc1ccc2c(c1)CN1C(=N2)CSC1c1cc([N+](=O)[O-])ccc1Cl (stereo not drawn)	> 100 µM	–	> 100 µM	> 100 µM	> 100 µM	72.3 µM	> 100 µM	–	> 100 µM	> 100 µM	> 100 µM	> 100 µM	> 100 µM	> 100 µM	57.5 µM	–	> 100 µM	> 100 µM
O=C1C(Cl)C(c2ccccc2)N1n1cnc2ccccc2c1=O (stereo not drawn)	> 100 µM	> 100 µM	> 100 µM	> 100 µM	> 100 µM	> 100 µM	> 100 µM	> 100 µM	> 100 µM	> 100 µM	–	–	–	> 100 µM	> 100 µM	–	> 100 µM	–
CN1CCOC1(C)CO (stereo not drawn)	> 100 µM	> 100 µM	> 100 µM	> 100 µM	> 100 µM	> 100 µM	> 100 µM	–	> 100 µM	> 100 µM	> 100 µM	> 100 µM	> 100 µM	> 100 µM	> 100 µM	–	> 100 µM	> 100 µM
Clc1ccc(-c2c(C3=NCCN3)nnn2-c2ccc(Cl)cc2)cc1	> 100 µM	73 µM	> 100 µM	> 100 µM	> 100 µM	38.8 µM	38.9 µM	52.5 µM	> 100 µM	73.8 µM	–	–	–	33 µM	32.7 µM	–	> 100 µM	–
COc1cc2c(cc1OC)C(O)[C@H](Br)C(C)(C)O2 (stereo partly drawn)	> 100 µM	> 100 µM	> 100 µM	> 100 µM	> 100 µM	> 100 µM	> 100 µM	> 100 µM	> 100 µM	> 100 µM	–	–	–	> 100 µM	> 100 µM	–	> 100 µM	–
CC(C)(C)C(=O)/C=C/c1ccc(Oc2ccccc2)cc1	94.3 µM	40.5 µM	39.1 µM	> 100 µM	–	29.3 µM	> 100 µM	> 100 µM	68.1 µM	36.1 µM	–	–	–	42.6 µM	–	–	–	–
COC(=O)C(=C/c1ccc(OC)cc1)/C(C(=O)O)=C(/C)c1ccccc1	> 100 µM	> 100 µM	> 100 µM	> 100 µM	> 100 µM	> 100 µM	> 100 µM	–	> 100 µM	> 100 µM	–	–	–	> 100 µM	> 100 µM	–	> 100 µM	–
COC(CN(C(=O)c1ccccc1)C1CCC2(SCCS2)c2[nH]c3ccccc3c21)OC (stereo not drawn)	> 100 µM	> 100 µM	> 100 µM	> 100 µM	> 100 µM	> 100 µM	13.9 µM	> 100 µM	> 100 µM	> 100 µM	> 100 µM	> 100 µM	77.1 µM	33.5 µM	–	> 100 µM	6.67 µM	–

Reference: PubChem BioAssay (NCI)
